Test results from patent US10125183B2, “Decoy peptides inhibiting binding of AMIGO2 and 3-phosphoinositide-dependent kinase 1” (Curacle Co., Ltd., priority 2015, dated 2018).
Where no end group is shown, it is not given here.

Tests used:
AMIGO2 = experiment: In vivo siRNA injection and analysis of hyaloid vessels and retinas; design: species or system mouse
Description: The sequence 5′-[…]-3′ (SEQ ID NO: 28) (mouse AMIGO2 siRNA, Dharmacon) was mixed with the TransIT®-QR Starter Kit (Mirus), and subcutaneously injected to each mouse (5 μg/P3.5 mouse) (Behlke, 2006; Bonifazi et al., 2010; Inaba et al., 2012; Mammoto et al., 2009). Hyaloid vessels and retinas were prepared as previously described (Lobov et al., 2005). After 2 days, the differences of protein change, retina, and hyaloid vessels were analyzed.

HUVECs [1] = experiment: FAK immunostaining, F-actin staining and apoptosis markers in siRNA-transfected HUVECs; format: cell-based, human
Description: (§1) HUVECs were transfected with scrambled (control) and human AMIGO2 siRNAs using Lipofectamine® (Invitrogen) for 3 h, and cells were assayed 48 h after transfection. Human AMIGO2 siRNA was designed by Invitrogen using the following sequences: 5′-[…]-3′ (SEQ ID NO: 8) and 5′-[…]-3′ (SEQ ID NO: 9). HUVECs were transfected with EGFP-tagged plasmids using Lipofectamine® LTX and PLUS™ (Invitrogen) for 2 h, and cells were assayed 24 h after transfection.
HUVECs were fixed in 3.7% formaldehyde for 10 min and permeabilized with 0.1% Triton X-100 on the ice. Cells were labeled with anti-FAK antibody (Santa Cruz Biotechnology), anti-PDK1 antibody (Cell Signaling Technology), anti-Akt antibody (Cell Signaling Technology), and anti-AMIGO2 antibody (Abcam) for 2 h at room temperature or overnight at 4° C. Afterwards, the cells were incubated with Alexa 488 and Alexa 546 secondary antibodies (Invitrogen) for 60 min at room temperature, and were then examined under a confocal microscope (LSM 700 META; Carl Zeiss).

HUVECs [2] = experiment: HUVEC cell viability with or without VEGF; format: cell-based, human; details: in the presence or absence of VEGF
Description: Endothelial progenitor cells (EPC) were isolated from human umbilical cord blood as previously described (Maeng et al., 2009). Briefly, human umbilical cord blood samples (approximately 50 mL each) were collected from fresh placentas with attached umbilical cords by gravity flow. Human umbilical vein endothelial cells (HUVECs) were isolated from human umbilical cord veins using collagenase as described previously (Marin et al., 2001), and cells from passages three to six were used. HUVECs were cultured on 2% gelatin-coated dishes at 37° C. in a 5% CO2-humidified atmosphere using M199 medium (HyClone) containing 20% fetal bovine serum (FBS), 100 U/mL penicillin, 100 μg/mL streptomycin, 3 ng/mL bFGF (Upstate Biotechnology), and 5 U/mL heparin.
The PTD-A2 of FITC-linker-YGRKKRRQRRR-GKRVVFLEPLKDTA (SEQ ID NO: 37) (decoy peptide) and the control peptide (FITC-linker-YGRKKRRQRRR-GRVKTDFLAVPEKL (SEQ ID NO: 38)) (Con-pep) were obtained from Peptron. The experiment was performed using 5 μM concentration in vitro, 4 mg/kg was used for an animal experiment. Peptide treated HUVECs were incubated with serum-free M199 medium at 37° C.

Akt = experiment: Endogenous Akt signaling in AMIGO2 siRNA-transfected HUVECs; format: cell-based, human
Description: as §1

HUVECs [3] = experiment: EC adhesion assay; format: cell-based, human; details: siRNA-transfected HUVECs
Description: as §1
HUVECs transfected with siRNA were trypsinized and washed twice in phenol-free M199. Prior to seeding, a 96-well plate was coated with 2% gelatin, fibronectin (3 μg/ml in PBS), and collagen type I (10 μg/ml in PBS), and incubated at 37° C. for 1 h in a humidified incubator. Prior to the initiation of the experiments, the wells were rinsed twice with PBS. HUVECs were labeled with calcein AM, and 1.5×10^4 cells were seeded into each well of the 96-well plates. Cells were incubated for 1 h at 37° C., and non-adherent, calcein-labeled cells were removed by four washes. M199 containing 20% FBS was added to the cells in each well, and the fluorescence was measured (maximum absorbance at 494 nm and maximum emission at 517 nm) using a fluorescein filter set by FLUOstar Omega (BGM LABTECH).

PH domain of PDK1 = molecular target: T1, PH domain of PDK1 (Homo sapiens, UniProt O15530); experiment: Pull-down assay and Far-western analysis of truncated AMIGO2 CD mutants; format: binding; details: purified GST-tagged proteins
T1 construct: the purified His-tagged PH domain proteins were incubated with Ni^2+-NTA resins; made in house; host or cells: Escherichia coli BL21
T1 sequence (O15530 409-556): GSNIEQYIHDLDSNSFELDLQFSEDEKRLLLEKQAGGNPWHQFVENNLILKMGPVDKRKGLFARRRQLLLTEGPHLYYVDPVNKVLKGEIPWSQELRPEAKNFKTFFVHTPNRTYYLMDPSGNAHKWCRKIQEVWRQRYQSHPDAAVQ
Description: GST-CD, 420-484, 420-474, 420-464 and 420-454 were prepared with vector plasmids of pGEX 4T1 and pET32a followed by the preparation of His-PH.BamH1 (5′-[…]-3′) (SEQ ID NO: 29) and Xho1 (5′-[…]-3′ (SEQ ID NO: 30), CD; 5′-[…]-3′ (SEQ ID NO: 31), 420-484; 5′-[…]-3′ (SEQ ID NO: 32), 420-474; 5′-[…]-3′ (SEQ ID NO: 33), 420-464; and 5′-[…]-3′ (SEQ ID NO: 34), 420-454) were used, and BamH1 (5′-[…]-3′ (SEQ ID NO: 35)) and Xho1 (5′-[…]-3′ (SEQ ID NO: 36)) were used for preparing His-PH. The proteins were expressed in Escherichia coli BL21, and purified with glutathione-Sepharose 4B resin and Ni2+-NTA-agarose.
GST and His-fused proteins (1.5 mg/ml:1.5 mg/ml) were incubated for 2 h at 4° C., immobilized on Ni^2+-NTA resin or glutathione-Sepharose 4B beads, and incubated for 30 min. Proteins were then eluted with elution buffer (25 mM NaPi, 300 mM NaCl, 5 mM β-mercaptoethanol, 500 mM imidazole, pH 7.5), western blot was performed with anti-GST and His antibodies.
Far-western analysis was performed as previously described (Wu et al., 2007). Briefly, purified GST-tagged proteins (1 μg) were loaded and separated, and then transferred to PVDF membranes. The membranes were denatured and renatured, incubated with purified His-tagged PH domain proteins (10 μg), and then detected with anti-His antibody.

[4] = subcutaneous injection, 5 μg/P3.5 mouse, after 2 days

5′-UUGUACAAAAGAUCUCGCUGA-3′ (SEQ ID NO: 28) [AMIGO2-specific siRNA]
Akt phosphorylation in hyaloid vessels and retinas (AMIGO2; Amigo2-depleted mice): decreased
expression of AMIGO2 in vivo (AMIGO2; subcutaneous injection, 5 μg/P3.5 mouse): decreased
hyaloid vessel structure (AMIGO2; [4]): significant decreases
retinal vessel growth and vascular areas (AMIGO2; [4]): reduced

5′-UUAGGAUGCCCUCAGCUAUCACUGC-3′ (SEQ ID NO: 8) and 5′-AUUGUUGUAAAGCAGAAGCACUUCC-3′ (SEQ ID NO: 9) [AMIGO2 siRNA]
active caspase-3 and FAK fragments (HUVECs [1]): detected
expression of FAK (immunostaining) (HUVECs [1]): low
F-actin depolymerization (HUVECs [1]; rhodamine-phalloidin staining): exhibited F-actin depolymerization
cell viability of siRNA-transfected HUVECs (HUVECs [2]): decreased
Akt phosphorylation (Thr308 and Ser473) (Akt): reduced
adhesion on ECM substrates (gelatin, fibronectin, collagen type I) (HUVECs [3]): reduced

420-474: purified GST-tagged truncated mutant of the AMIGO2 cytosolic domain, residues 420-474 (TPCPCKCKTKRQKNMLHQSNAHSSILSPGPASDASADERKAGAGKRVVFLEPLKD; cysteine pairing not given here; also: GST-tagged)
direct interaction with purified His-PDK1 PH (PH domain of PDK1): directly interacted

B1: 420-484: purified GST-tagged truncated mutant of the AMIGO2 cytosolic domain, residues 420-484 (protein)
chain: TPCPCKCKTKRQKNMLHQSNAHSSILSPGPASDASADERKAGAGKRVVFLEPLKDTAAGQNGKVR
modifications: also: GST-tagged
direct interaction with purified His-PDK1 PH (PH domain of PDK1): directly interacted

B2: GST-tagged AMIGO2^CD: purified GST-tagged cytosolic domain of AMIGO2 (420-522aa) (protein)
chain: TPCPCKCKTKRQKNMLHQSNAHSSILSPGPASDASADERKAGAGKRVVFLEPLKDTAAGQNGKVRLFPSEAVIAEGILKSTRGKSDSDSVNSVFSDTPFVAST
modifications: left off: a dimerising Fc or GST
direct interaction with purified His-PDK1 PH (PH domain of PDK1): directly interacted
